Columns and labels:
[1] = system: human AML cell line (CMK); conditions: CMK cells expressing mutant (A572V) JAK3
Source text: (§1) CP-690,550, which specifically binds to and blocks the ATP-binding site of JAK3 kinase, thereby preventing phosphorylation and activation of this enzyme, is commercially available and some of its properties have been described. See, e.g. Borne et al., Tranplantation 80 (12): 1756-1764 (2005); Paniagua et al., Tranplantation 80 (9): 1283-1292 (2005).

[2] = system: control cells that do not express the mutant JAK3 protein; conditions: control cells not expressing mutant JAK3
Source text: as §1

CMK cells [3] = experiment: Apoptosis by annexin V staining with JAK I; assay type: cell-based, human; conditions: increasing concentrations
Method: (§2) JAK I (Calbiochem, San Diego, Calif.) is a potent inhibitor of the JAK family of kinases, including JAK3. To confirm that JAK3 is driving the proliferation of CMK cells, the effect of JAK I on the growth and/or viability of CMK cells was examined. CMK and K562 cells (as a control) were treated for seventy hours with increasing doses of JAK I inhibitor up to 2 micrograms/ml. The number of viable cells was determined with the CellTiter 96 AQueous One solution cell proliferation assay (Promega). Apoptosis was measured with a fluorescent stain measuring annexin V.

STAT5 = experiment: Western blot of STAT5 phosphorylation after JAK I; assay type: cell-based, human; conditions: CMK cells, range of inhibitor concentrations
Method: AML-193, GDM-1, CMK, K562 and Ba/F3 cells were obtained from the German National Resource Centre for Biological Material (DSMZ). GF-D8 cells were generously provided by Dr. Orietta Spinelli, Laboratorio Paolo Belli, Bergamo, Italy. All cell lines were maintained in RPMI 1640 supplemented with 10% FCS, 1 unit/mL penicillin G, and 1 μg/mL streptomycin at 37° C. and 5% CO2. Western blotting was carried out according to standard methods, following the Western Blotting Protocol (Cell Signaling Technology, Inc., 2005-2006 Catalogue).
To further confirm the effect of the JAK I on the CMK cell line, Western blot analysis (as described above) was performed following exposure to a range of inhibitor concentrations, and the activity of the JAK3 downstream target, STAT5 examined (see FIG. 3C).

K562 cells = experiment: CellTiter 96 AQueous One cell proliferation assay with JAK I, control cell line; assay type: cell-based; conditions: control cell line K562, seventy hours, up to 2 micrograms/ml
Method: as §2

CMK cells [4] = experiment: CellTiter 96 AQueous One cell proliferation assay with JAK I; assay type: cell-based, human; conditions: seventy hours, increasing doses up to 2 micrograms/ml
Method: as §2

SMILES | growth and survival [1] | growth and survival [2] | apoptosis as measured by annexin V staining (CMK cells [3]) | phosphorylation of STAT5 (STAT5) | growth and viability (K562 cells) | cell proliferation (CMK cells [4]) | viability (CMK cells [4])
C[C@@H]1CCN(C(=O)CC#N)C[C@@H]1N(C)c1ncnc2[nH]ccc12 [CP-690,550] | selectively inhibited the growth and survival | not in control cells | – | – | – | – | –
CC(C)(C)c1nc2c3cc[nH]c(=O)c3c3cc(F)ccc3c2[nH]1 [JAK I] | – | – | increase in apoptosis | inhibited phosphorylation | no significant effect | inhibition of cell proliferation | significant decrease in viability
